Source: paper PMC3436892, “Novel African Trypanocidal Agents: Membrane Rigidifying Peptides” (PLoS ONE, 2012)

Columns and labels:
[1] = Parallax analysis of tryptophan penetration depth; assay type: physicochemical; conditions: for F1/F2 ± S.D.: ratio of tryptophan fluorescence intensity (357 nm) with shallow (6,7-dibromo-PC, F1) and deep (9,10-dibromo-PC, F2) quencher, 200 µg/ml liposomes, at least triplicate
Experimental: The hydrocarbon penetration depth of tryptophans spaced throughout synthetic peptides corresponding to SHP-1 or SHP-3 (Table S1) was determined by parallax analysis with brominated phosphatidylcholine liposomes. Large unilamellar liposomes composed of egg phosphatidylcholine and 10 mol % 1-palmitoyl-2-(6,7-dibromo)stearoyl-sn-glycero-3-phosphocholine (shallow quencher) or 1-palmitoyl-2-(9,10-dibromo)stearoyl-sn-glycero-3-phosphocholine (deep quencher) were constructed by hydration of a thin dry lipid film with phosphate buffered saline. Resulting multilamellar liposomes were made unilameller via extrusion through polycarbonate filters with 0.1 µm pores. Peptides (500 nM) were incubated with 200 µg/ml liposomes in phosphate buffered saline at 37°C for 22 h. Tryptophan fluorescence at 357 nm was measured from at least triplicate trials in the PerkinElmer Life Sciences LS55 spectrofluorometer and an excitation wavelength of 280 nm for SHP-1 and 290 nm for SHP-2, 10 nm excitation and 9 nm emission slit widths. The distance of tryptophans from the bilayer center (ZCF) is calculated from the equation [12]: [drawing 1] Where LC1 is the distance from the center of the bilayer to the shallow quencher, in this case 10.8 Å for 6,7-dibromo-PC [25], F1 is the intensity of tryptophan in the presence of the shallow quencher and F2 is the tryptophan intensity in the presence of the deep quencher, C is the mole fraction of quencher divided by the area of individual phospholipid (70 Å^2), and L21 is the difference in the depth of the two quenchers (2.7 Å). The hydrocarbon insertion depth of tryptophans is then given by one half the bilayer thickness, 29 Å [25], minus ZCF.

BSF T. b. brucei [2] = test: 2 h killing assay, BSF T. b. brucei; assay type: cell-based, Trypanosoma brucei brucei; conditions: light microscopy (Fig. 1d, Figure S2a)
Live BSF T. b. brucei = test: Trypanosome motility scoring by DIC microscopy; assay type: cell-based, Trypanosoma brucei brucei
Experimental: All images and videos were acquired with an Axio Observer Z1 equipped with an AxioCam MRm controlled by AxioVision 4.6 software. Videos were acquired with live cells at a density of 1×10^7 cells/mL in HMI 9 media with 10 % fetal bovine serum, incubated with 40 µM SHP at 37°C. Trypanosomes were visualized at magnification 63 × and videos were recorded with 100-ms acquisition times. The motility of BSF trypanosomes was scored directly or from video playback. Trypanosome motility was classified as normal, hyperactive or constricted as described previously. An example of a trypanosome scored as normal is shown in Movie S1. […] Data in figure 2D is shown as the average of at least duplicate trials with standard deviations.

BSF T. b. brucei [3] = test: Flow cytometry peptide binding; assay type: cell-based, Trypanosoma brucei brucei; conditions: 8 µM FITC-labeled peptide, 3×10^6 cells/ml, HMI 9 plus 10 % fetal bovine serum, 25 °C, 50,000 cells counted immediately, flow cytometry (Figure S1)
Experimental: SHP binding to BSF T. b. brucei. FITC-labeled SHP-1 (blue ? ) and SHP-3 (green ? ) were assayed for binding to BSF T. b. brucei via flow cytometry (no peptide, red ? ) . Trypanosomes were adjusted to 3 × 10^6 cells/ml in HMI 9 media with 10 % fetal bovine serum, 8 µM FITC-SHP-1 or FITC-SHP-3 was added and 50,000 cells were immediately counted.
Flow Cytometry – Peptide binding to BSF T. b. brucei was monitored by flow cytometry as described previously. Binding assays were performed with 3 × 10^6 cells/ml in HMI 9 plus 10 % fetal bovine serum at 25 °C. FITC-labeled SHP-1 or SHP-3 was added to a final concentration of 8 µM and 50,000 cells were immediately counted on a CyAn ADP flow cytometer (Dako). Data were analyzed with FlowJo software (TreeStar Inc.).

[4] = Calcein release (membrane interaction) assay; assay type: physicochemical; conditions: unilamellar egg phosphatidylcholine liposomes with 30 mM calcein, PBS, 0.2-4 µM peptide, fluorescence 484/513 nm (Figure S2b, c)
Experimental: Trypanosome killing and membrane interaction with SHP tryptophan variants. […] (b) The ability of SHP-1 tryptophan variants, 1 µM SHP-1ΔW1 (orange ? ), 1 µM SHP-1ΔW8 (green ? ), 0.2 µM SHP-1 (blue ? ) and 0.2 µM SHP-1ΔW18 (red ? ), and (c) SHP-3 tryptophan variants, 1 µM SHP-3ΔW1 (orange ? ), 1 µM SHP-3 (blue ? ), 1 µM SHP-3ΔW13 (red ? ) and 4 µM SHP-3ΔW20 (green ? ), to interact with lipid bilayers was determined by monitoring the release of entrapped calcein from unilamellar egg phosphatidylcholine liposomes.
Calcein Release Assays – Membrane permeabilization assays were conducted as described in detail previously. Unilamellar liposomes were constructed as described above but with 30 mM calcein in 10 mM Hepes as the hydration buffer. Untrapped dye was removed by gel filtration (Sephacryl S-300 HR, GE Healthcare). Liposomes were diluted 1:1000 into phosphate buffered saline, and calcein fluorescence was monitored at 513 nm when excited at 484 nm. The percent calcein release was calculated relative to the 100% fluorescence intensity, achieved by the addition of 0.01% Triton X-100.

[5] = 500 nM peptide, PBS, 37°C, 22 h
[6] = 40 µM SHP, 37°C, 1×10^7 cells/mL, HMI 9 with 10 % fetal bovine serum, DIC microscopy, at least duplicate (Fig. 2d)

FHQIGAALLYFYGIILNSIW [SHP-3∆W20, SHP-3 tryptophan variant, Trp at position 20]
F1/F2 ± S.D. [1, 5]: 1.1620 ± 0.3194

FHQIGAALLYFYWIILNSIY [SHP-3∆W13, SHP-3 tryptophan variant, Trp at position 13]
F1/F2 ± S.D. [1, 5]: 0.9912 ± 0.0787

FHQIWAALLYFYGIILNSIY [SHP-3, non-trypanocidal small hydrophobic peptide derived from an apolipoprotein]
trypanocidal activity against BSF T. b. brucei (BSF T. b. brucei [2]): no trypanocidal activity was detected | constriction of motility following hyperactivation (Live BSF T. b. brucei; [6]): subsequent constriction does not occur | hyperactivation of motility (Live BSF T. b. brucei; [6]): some hyperactivation | motility approximately 30 sec after addition (Live BSF T. b. brucei; 40 µM peptide, DIC video microscopy, representative cells (Movies S2, S3)): hyperactivated motility | insertion depth of native tryptophan, position 5 ([1]; 500 nM peptide, 200 µg/ml brominated egg PC liposomes, PBS, 37°C, 22 h): approximately 1.6 Å | quenching of N-terminal tryptophan (position 1) ([1]; Trp-substituted variant W1, suggests it does not intercalate into the hydrocarbon region): inefficiently quenched | insertion depth of tryptophan at position 13 ([1]; Trp-substituted variant W13, 500 nM peptide, 200 µg/ml brominated egg PC liposomes, PBS, 37°C, 22 h): approximately 4.7 Å | insertion depth of C-terminal tryptophan (position 20) ([1]; Trp-substituted variant W20, 500 nM peptide, 200 µg/ml brominated egg PC liposomes, PBS, 37°C, 22 h): approximately 11.2 Å | F1/F2 ± S.D. [1, 5]: 0.9202 ± 0.1260 | binding to BSF T. brucei (BSF T. b. brucei [3]): binding to BSF T. brucei | membrane interaction (release of entrapped calcein from liposomes) [4]: exhibit membrane interaction

SDLGAVISLLLGGRQLFW [SHP-1∆W18, SHP-1 tryptophan variant, Trp at position 18]
F1/F2 ± S.D. [1, 5]: 0.9285 ± 0.1557

SDLGAVIWLLLGGRQLFA [SHP-1∆W8, SHP-1 tryptophan variant, Trp at position 8]
F1/F2 ± S.D. [1, 5]: 0.9767 ± 0.0717

WDLGAVISLLLGGRQLFA [SHP-1∆W1, SHP-1 tryptophan variant, Trp at position 1]
F1/F2 ± S.D. [1, 5]: 0.8897 ± 0.1112
